Each structure is given as a SMILES string. Where only a bound is given, the exact number is not on record here.

Test [1] in a line: Cytotoxicity against human GM00637 cells assessed as reduction in cell viability after 72 hrs by MTT assay. Type of test: cell-based. Conditions: GM00637, 72 h. In general terms: Tetrazolium dyes change colour on reduction, which living cells bring about.
The nature of test [2]: Cytotoxicity against human DU145 cells assessed as reduction in cell viability after 72 hrs by MTT assay. Type of test: functional, cell-based. Conditions: DU-145, 72 h.
Test [3] deals with MCF7. In words: Cytotoxicity against human MCF7 cells assessed as reduction in cell viability after 72 hrs by MTT assay. It is filed as functional, cell-based. The note with it: MCF7, 72 h.
In test [4] the target is Thioredoxin reductase (Homo sapiens, UniProt Q16881+Q9NNW7+Q86VQ6). As to the kind of experiment: Irreversible inhibition of thioredoxin reductase (unknown origin). Type of test: protein assay.
A short description of test [5]: Inhibition of recombinant human TRX1/human placental thioredoxin reductase using DTNB as substrate in presence of NADPH by spectrophotometric method.

As to `COc1cc2nc(-c3ccccc3)nn(-c3ccccc3)c-2cc1=O`, the IC50 in test [1], in test [2] and in test [3] was > 5 µM in each case.
With `CCN(CC)c1cc2nc(-c3ccccc3)nn(-c3ccccc3)c-2cc1=O`, the IC50 (as a rule, the point on the concentration scale where inhibition reaches its midpoint) in test [1] was 2.73 µM; in test [2], 3.11 µM; in test [3], > 5 µM.
Regarding `O=c1cc2n(-c3ccccc3)nc(-c3ccccc3)nc-2cc1N1CCCC1`, the IC50 was 1.79 µM in test [1], 2.46 µM in test [2] and 0.36 µM in test [3].
The like results for `O=c1cc2n(-c3ccccc3)nc(-c3ccccc3)nc-2cc1N1CCCCC1` were, in that order, 1.19 µM, 0.61 µM and 1.98 µM.
Regarding `O=c1cc2n(-c3ccccc3)nc(-c3ccccc3)nc-2cc1N1CCOCC1`, the IC50 in test [1] was 2.29 µM; in test [2], 3.21 µM; in test [3], 2.37 µM.
Turning to `O=c1cc2n(-c3ccccc3)nc(-c3ccccc3)nc-2cc1N1CCSCC1`, the IC50 in test [1] is 1.63 µM; in test [2], 1.22 µM; in test [3], 0.97 µM.
The like results for `CCNc1cc2nc(-c3ccccc3)nn(-c3ccccc3)c-2cc1=O` were, in that order, 0.24 µM, 0.22 µM and 1.62 µM.
The like results for `CCOc1cc2nc(-c3ccccc3)nn(-c3ccccc3)c-2cc1=O` were, in that order, > 5 µM, > 5 µM and > 5 µM.
The like results for `CC(=O)Nc1cc2nc(-c3ccccc3)nn(-c3ccccc3)c-2cc1=O` were, in that order, > 5 µM, > 5 µM and > 5 µM.
In the case of `Nc1cc2nc(-c3ccccc3)nn(-c3ccccc3)c-2cc1=O`, the figures for the IC50 in test [1], in test [2] and in test [3] were 2.04 µM, 1.83 µM and 0.95 µM, respectively.
`C[C@@H]1CO[C@@H]2C3=C(C(=O)C=CC3=O)[C@H]3OC(=O)[C@@H]4CC[C@H]5C1CC[C@@]25[C@@H]34` had a Ki in test [4] of 0.28 µM. The IC50 in test [1] was 0.51 µM; in test [5] it was 0.17 µM; in test [2], 0.43 µM; in test [3], 0.28 µM.
Consider `CNc1cc2nc(-c3ccccc3)nn(-c3ccccc3)c-2cc1=O`, for which the IC50 in test [1] was determined as 0.93 µM; in test [2], 0.98 µM; in test [3] it was 0.69 µM.

The values above are taken from ChEMBL document CHEMBL3813672, “Discovery of anti-cancer activity for benzo[1,2,4]triazin-7-ones: Very strong correlation to pleurotin and thioredoxin reductase inhibition” (Bioorg Med Chem, 2016).
